Measurements as given in paper PMC3047451 (Journal of medicinal chemistry, 2011).
Entries after “also recorded” stand apart in the source; their conditions may differ. Read-outs that look alike come from different tables or passages of the source.

What was measured:
δ-opioid receptor = δ-opioid receptor (Homo sapiens, UniProt P41143); experiment: biochemical; format: binding
κ-opioid receptor = κ-opioid receptor (Homo sapiens, UniProt P41145); experiment: biochemical; format: binding
[1] = molecular target: T1, cloned human μ-opioid receptor (Homo sapiens, UniProt P35372); settings: for μ-antagonist potency compared with naloxone or naltrexone (in words): [35S]GTP-γ-S assay; for fold more potent than naloxone as μ-antagonist: [35S]GTP-γ-S functional binding assay; for Ke: shift of DAMGO dose-response curve by test agent, hMOR-CHO membranes, ± SD
T1 sequence (P35372 whole entry): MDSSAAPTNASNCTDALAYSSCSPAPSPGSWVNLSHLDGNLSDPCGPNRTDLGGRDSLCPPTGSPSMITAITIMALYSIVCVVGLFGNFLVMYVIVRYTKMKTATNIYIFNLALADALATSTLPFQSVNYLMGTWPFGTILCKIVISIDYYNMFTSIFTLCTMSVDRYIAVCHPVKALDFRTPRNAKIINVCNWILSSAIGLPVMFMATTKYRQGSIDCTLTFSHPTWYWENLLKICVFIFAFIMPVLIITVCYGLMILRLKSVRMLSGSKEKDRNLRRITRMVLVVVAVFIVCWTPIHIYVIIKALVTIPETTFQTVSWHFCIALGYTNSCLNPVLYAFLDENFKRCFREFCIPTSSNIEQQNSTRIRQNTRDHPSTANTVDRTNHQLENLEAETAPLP

[2] = molecular target: T1, cloned human μ-opioid receptor; settings: 10 μM, non-dependent hMOR cells
μ-opioid receptor [3] = molecular target: T2, μ-opioid receptor (Homo sapiens, UniProt P35372); experiment: biochemical
T2 sequence (P35372 whole entry): as above

[4] = molecular target: T1, cloned human μ-opioid receptor; experiment: biochemical
μ-opioid receptor [5] = molecular target: T2, μ-opioid receptor; settings: for Ki: read-out: Ki, μ
[6] = molecular target: T1, cloned human μ-opioid receptor; settings: full inverse agonist curve; cited from earlier work
[7] = read-out: Ki, δ, 125I-IOXY, hDOR-CHO, n = 3 (± SD)

Chain of δ-opioid receptor (P41143 whole entry): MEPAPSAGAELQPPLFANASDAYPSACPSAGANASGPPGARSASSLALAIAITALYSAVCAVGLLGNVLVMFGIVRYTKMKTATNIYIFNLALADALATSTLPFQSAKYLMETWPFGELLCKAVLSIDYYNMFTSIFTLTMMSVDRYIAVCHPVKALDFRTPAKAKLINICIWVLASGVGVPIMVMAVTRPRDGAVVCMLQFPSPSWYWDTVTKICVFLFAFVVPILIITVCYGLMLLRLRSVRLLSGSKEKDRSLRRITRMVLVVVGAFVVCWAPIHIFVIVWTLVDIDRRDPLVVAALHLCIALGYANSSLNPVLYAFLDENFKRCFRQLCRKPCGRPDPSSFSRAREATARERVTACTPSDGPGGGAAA
Chain of κ-opioid receptor (P41145 whole entry): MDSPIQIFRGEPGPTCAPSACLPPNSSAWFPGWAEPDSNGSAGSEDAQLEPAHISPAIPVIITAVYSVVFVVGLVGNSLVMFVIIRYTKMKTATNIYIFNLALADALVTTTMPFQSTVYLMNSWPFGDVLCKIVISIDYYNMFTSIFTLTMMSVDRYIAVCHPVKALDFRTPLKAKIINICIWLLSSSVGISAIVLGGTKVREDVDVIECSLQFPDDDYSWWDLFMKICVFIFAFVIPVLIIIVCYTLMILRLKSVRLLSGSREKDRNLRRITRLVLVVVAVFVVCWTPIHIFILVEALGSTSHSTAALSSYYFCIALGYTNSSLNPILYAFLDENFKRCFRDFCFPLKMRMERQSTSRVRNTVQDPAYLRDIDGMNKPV

SMILES: Oc1cccc([C@]23CCC[C@H](C2)N(CC=Cc2ccccc2)CC3)c1 [(−)−6, 3-((1R,5S)-2-Cinnamyl-2-azabicyclo[3.3.1]nonan-5-yl)phenol]
- Ki (δ-opioid receptor): 152 ± 5 nM
- Ki (κ-opioid receptor): 225 ± 7 nM
- μ-antagonist potency compared with naloxone or naltrexone (in words) [1]: four fold less active as opioid antagonists
- inverse agonist activity (effect on [35S]GTP-γ-S binding) [2]: little or no activity as an inverse agonist; also recorded: did not act as inverse agonists
- Ki (μ-opioid receptor [3]): 6 ± 0.39 nM
- Kb [4]: 6.6 ± 0.7 nM

SMILES: Oc1cccc([C@@]23CCC[C@@H](C2)N(CC=Cc2ccccc2)CC3)c1 [(+)−6, 3-((1S,5R)-2-Cinnamyl-2-azabicyclo[3.3.1]nonan-5-yl)phenol]
- Ki (δ-opioid receptor): 138 ± 5 nM
- Ki (κ-opioid receptor): 125 ± 3 nM
- fold more potent than naloxone as μ-antagonist [1]: 4 fold
- Ki (μ-opioid receptor [3]): 2 ± 0.13 nM
- Kb [4]: 0.58 ± 0.07 nM

SMILES: Oc1cccc([C@@]23CCC[C@@H](C2)N(C[C@H]2C[C@H]2c2ccccc2)CC3)c1 [(+)−32, 3-((1S,5R)-2-(((1’S,2’R)-2-Phenylcyclopropyl)methyl)-2-azabicyclo[3.3.1]nonan-5-yl)phenol]
- Ki (δ-opioid receptor; [7]): 547 ± 23 nM
- Ki (κ-opioid receptor; read-out: Ki, κ): 174 ± 12 nM
- Ki (μ-opioid receptor [5]): 76 ± 0.3 nM
- Ke [1]: 18 ± 6 nM

SMILES: Oc1cccc([C@]23CCC[C@H](C2)N(C/C=C\c2ccccc2)CC3)c1 [(−)−9, 3-((1R,5S)-2-((Z)-3-phenylallyl)-2-azabicyclo[3.3.1]nonan-5-yl)phenol]
- Ki (δ-opioid receptor): 359 ± 18 nM
- Ki (κ-opioid receptor): 367 ± 18 nM
- Ki (μ-opioid receptor [3]): 14 ± 0.7 nM
- Kb [4]: 7.7 ± 1.6 nM

SMILES: Oc1cccc([C@@]23CCC[C@@H](C2)N(C/C=C\c2ccccc2)CC3)c1 [(+)−9, 3-((1S,5R)-2-((Z)-3-phenylallyl)-2-azabicyclo[3.3.1]nonan-5-yl)phenol]
- Ki (δ-opioid receptor): 454 ± 25 nM
- Ki (κ-opioid receptor): 123 ± 4 nM
- μ-antagonist potency compared with naloxone or naltrexone (in words) [1]: about as potent as naloxone
- inverse agonist activity at non-dependent μ-opioid receptors [6]: inverse agonist
- Ki (μ-opioid receptor [3]): 26 ± 2 nM
- Kb [4]: 3.1 ± 0.7 nM

SMILES: Oc1cccc([C@]23CCC[C@H](C2)N(C[C@H]2C[C@H]2c2ccccc2)CC3)c1 [(+)−31, 3-((1R,5S)-2-(((1’S,2’R)-2-Phenylcyclopropyl)methyl)-2-azabicyclo[3.3.1]nonan-5-yl)phenol]
- Ki (δ-opioid receptor; [7]): 1980 ± 54 nM
- Ki (κ-opioid receptor; read-out: Ki, κ): 475 ± 33 nM
- fold difference in μ Ki between the cis stereoisomers (μ-opioid receptor [5]): ~42 fold
- Ki (μ-opioid receptor [5]): 459 ± 14 nM
- Ke [1]: 33 ± 7 nM

SMILES: Oc1cccc([C@]23CCC[C@H](C2)N(C[C@@H]2C[C@H]2c2ccccc2)CC3)c1 [(−)−30, 3-((1R,5S)-2-(((1’R,2’R)-2-Phenylcyclopropyl)methyl)-2-azabicyclo[3.3.1]nonan-5-yl)phenol]
- Ki (δ-opioid receptor; [7]): 200 ± 10 nM
- Ki (κ-opioid receptor; read-out: Ki, κ): 210 ± 13 nM
- Ki (μ-opioid receptor [5]): 4 ± 0.27 nM
- μ-antagonist potency compared with naloxone or naltrexone (in words) [1]: about equipotent with naltrexone
- fold more potent than naloxone as μ-antagonist [1]: 7 fold
- Ke [1]: 0.31 ± 0.06 nM

SMILES: Oc1cccc([C@]23CCC[C@H](C2)N(C[C@@H]2C[C@@H]2c2ccccc2)CC3)c1 [(−)−32, 3-((1R,5S)-2-(((1’R,2’S)-2-Phenylcyclopropyl)methyl)-2-azabicyclo[3.3.1]nonan-5-yl)phenol]
- Ki (δ-opioid receptor; [7]): 196 ± 6 nM
- Ki (κ-opioid receptor; read-out: Ki, κ): 322 ± 22 nM
- Ki (μ-opioid receptor [5]): 11 ± 0.9 nM
- μ-antagonist potency compared with naloxone or naltrexone (in words) [1]: four fold less active as opioid antagonists
- Ke [1]: 8.2 ± 1.8 nM
- inverse agonist activity (effect on [35S]GTP-γ-S binding) [2]: did not act as inverse agonists

SMILES: Oc1cccc([C@@]23CCC[C@@H](C2)N(C[C@H]2C[C@@H]2c2ccccc2)CC3)c1 [(+)−30, 3-((1S,5R)-2-(((1’S,2’S)-2-Phenylcyclopropyl)methyl)-2-azabicyclo[3.3.1]nonan-5-yl)phenol]
- Ki (δ-opioid receptor; [7]): 183 ± 7 nM
- Ki (κ-opioid receptor; read-out: Ki, κ): 323 ± 15 nM
- Ki (μ-opioid receptor [5]): 16 ± 1 nM
- μ-antagonist potency compared with naloxone or naltrexone (in words) [1]: equipotent with naloxone; also recorded: about as potent as naloxone
- Ke [1]: 2.2 ± 0.4 nM

SMILES: Oc1cccc([C@]23CCC[C@H](C2)N(C[C@H]2C[C@@H]2c2ccccc2)CC3)c1 [(+)−29, 3-((1R,5S)-2-(((1’S,2’S)-2-Phenylcyclopropyl)methyl)-2-azabicyclo[3.3.1]nonan-5-yl)phenol]
- Ki (δ-opioid receptor; [7]): 165 ± 7 nM
- Ki (κ-opioid receptor; read-out: Ki, κ): 72 ± 4 nM
- Ki (μ-opioid receptor [5]): 3 ± 0.26 nM
- Ke [1]: 0.17 ± 0.02 nM

SMILES: Oc1cccc([C@@]23CCC[C@@H](C2)N(C[C@@H]2C[C@@H]2c2ccccc2)CC3)c1 [(−)−31, 3-((1S,5R)-2-(((1’R,2’S)-2-Phenylcyclopropyl)methyl)-2-azabicyclo[3.3.1]nonan-5-yl)phenol]
- Ki (δ-opioid receptor; [7]): 610 ± 25 nM
- Ki (κ-opioid receptor; read-out: Ki, κ): 153 ± 7 nM
- Ki (μ-opioid receptor [5]): 265 ± 17 nM
- Ke [1]: 8.6 ± 1.9 nM

SMILES: Oc1cccc([C@@]23CCC[C@@H](C2)N(C[C@@H]2C[C@H]2c2ccccc2)CC3)c1 [(−)−29, 3-((1S,5R)-2-(((1’R,2’R)-2-Phenylcyclopropyl)methyl)-2-azabicyclo[3.3.1]nonan-5-yl)phenol]
- Ki (δ-opioid receptor; [7]): 800 ± 29 nM
- Ki (κ-opioid receptor; read-out: Ki, κ): 390 ± 16 nM
- Ki (μ-opioid receptor [5]): 47 ± 3 nM
- Ke [1]: 9.4 ± 1.5 nM
